Assay results from US20230285364A1, “USE OF A DHODH INHIBITOR COMPOUND IN COMBINATION CANCER THERAPY” (Servier Pharmaceuticals LLC, priority 2020, published 2023).
Like-named read-outs stand apart in the source and are kept apart here.

How the values were obtained:
[1] = tested on: OCILY19 xenograft model of DLBCL; assay type: in vivo
Experimental: 5 × 10^6 OCILY cells were implanted subcutaneously into 5-6 week-old female CB17 SCID mice in serum free media with Matrigel 1:1. Tumor volume and body weights were monitored twice a week until the tumors reached ~ 150 mm^3. […] At the end of study, tumor, plasma, and liver tissues were collected at the indicated timepoints post-last dose for PK and biomarker analyses. […] Venetoclax was formulated with 60% Phosal 50, 30% PEG 400, and 10% ethanol and stored at 4° C.

[2] = tested on: MOLM13 xenograft model of AML; assay type: in vivo
Experimental: 5 × 10^6 MOLM13 cells were implanted subcutaneously into 5-6 week-old female CB17 SCID mice in serum free media with Matrigel 1:1. Tumor volume and body weights were monitored twice a week until the tumors reached ~ 150 mm^3. […] At the end of study, tumor, plasma, and liver tissues were collected at the indicated timepoints post-last dose for PK and biomarker analyses. […] Venetoclax was formulated with 60% Phosal 50, 30% PEG 400, and 10% ethanol and stored at 4° C.

[3] = cited from earlier work

Cc1ccccc1-c1ccc(-c2cc(C(=O)O)c3c(c2)nnn3C)cc1 [Compound 1, 1-methyl-5-(2′-methyl-[1,1′-biphenyl]-yl)-1H-benzo[d][1,2,3]triazole-7-carboxylic acid]
Tumor Growth Inhibition ([1]; Compound 1 30 mg/kg BID alone): 56%
Tumor Growth Inhibition ([2]; Compound 1 30 mg/kg alone): 24%

Nc1ncn([C@H]2C[C@H](O)[C@@H](CO)O2)c(=O)n1 [Decitabine, 4-amino-1-(2-deoxy-β-D-erythro-pentofuranosyl)-1,3,5-triazin-2(1H)one]
solubility ([3]; dimethylsulfoxide (DMSO)): soluble
solubility ([3]; ethanol/water (50/50), methanol/water (50/50) and methanol): slightly soluble
solubility ([3]; water): sparingly soluble

4-(4-{ [2-(4-chlorophenyl)-4,4- dimethylcyclohex-1-en-1-yl]methyl}piperazin-1-yl)-N-({3-nitro-4-[(tetrahydro-2H-pyran-4-ylmethyl)amino]phenyl}sulfonyl)-2-(1H-pyrrolo[2,3-b]pyridin-5-yloxy)benzamide) [Venetoclax]
Tumor Growth Inhibition ([1]; Venetoclax 1 mg/kg alone): 3.6%
effect on tumor growth ([1]; venetoclax alone at the 1 m/kg dose): no effect
Tumor Growth Inhibition ([2]; Venetoclax 30 mg/kg alone): 27%

Nc1ncn([C@@H]2O[C@H](CO)[C@@H](O)[C@H]2O)c(=O)n1 [Azacitidine, 4-amino-1-β-D-ribofuranozyl-s-triazin-2(1H)-one]
solubility ([3]; acetone, ethanol and methyl ketone): insoluble
solubility ([3]; dimethylsulfoxide (DMSO)): soluble
solubility ([3]; ethanol/water (50/50), propylene glycol and polyethylene glycol): slightly soluble
solubility ([3]; water, water-saturated octanol, 5% dextrose in water, N-methyl-2-pyrrolidone, normal saline and 5% Tween 80 in water): sparingly soluble
